The target of one series is T1, human RNaseH1 (Homo sapiens, UniProt O60930).
T1 sequence (O60930 1-286): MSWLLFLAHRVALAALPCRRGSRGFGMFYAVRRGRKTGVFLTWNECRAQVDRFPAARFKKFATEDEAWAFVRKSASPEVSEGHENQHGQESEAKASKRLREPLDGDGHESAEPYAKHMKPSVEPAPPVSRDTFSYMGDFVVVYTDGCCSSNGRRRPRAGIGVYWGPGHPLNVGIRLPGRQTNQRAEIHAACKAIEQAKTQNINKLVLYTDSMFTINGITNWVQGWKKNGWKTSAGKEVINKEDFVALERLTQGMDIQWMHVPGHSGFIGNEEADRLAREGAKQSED
As to the kind of experiment: Biochemical inhibition of human RNaseH1 activity. Conditions: Table 2 amides; read-out: HuRH1 IC50. Here is the method:
Biochemical inhibition of human RNaseH1 activity. Quantitative inhibition of the human RNaseH1 in the biochemical assays was assessed using a molecular beacon assay as described previously (Edwards et al., 2017). Recombinant human RNaseH 1 (0.3 μg) was incubated with 100 nM RNA:DNA substrate, 50 mM HEPES pH 8.0, 100 mM NaCl, 2 mM Tris(2-carboxyethyl)phosphine hydrochloride (TCEP), 0.05% Tween20, 5 units of RNaseOut, test compounds (0 to 500 μM), and 5% DMSO in a 100 μL reaction volume. The substrate was formed by annealing a complementary RNA oligonucleotide to a hairpin DNA oligonucleotide to hold the hairpin DNA oligonucleotide in an open conformation. The DNA oligonucleotide has a 5′ fluorescein reporter and a 3′ black hole quencher. When the RNA is degraded from the substrate the DNA oligonucleotide closes to form a hairpin structure, decreasing in signal intensity. Reactions were initiated with 5 mM MgCl2 and fluorescence was read using a Synergy HTS multi-mode plate reader at 37° C. Alternatively, the HBV RNaseH version used was MBP-HRHgtCΔ5, a genotype C isolate which lacks the C-terminal 35 amino acids of the HBV RNaseH domain that are predicted to be unstructured. Quantitative inhibition of the human RNaseH1 in biochemical assays was assessed using a FRET-based RNaseH assay under conditions previously reported for an RNaseH molecular beacon assay (Edwards et al., 2017). […] Cleavage of the RNA strand released the fluorescein from quenching, increasing fluorescence. Reactions were monitored for 90 min at 37° C. in a plate reader and initial reaction rates were calculated. Reactions contained escalating concentrations of the compounds.

Series [1] concerns C. neoformans var. grubii, KN99. The experiment in a line: C. neoformans growth inhibition assay (limiting dilution). Type of series: cell-based, Cryptococcus neoformans. As to conditions: Cryptococcus neoformans, 48 h, Table 2 amides; 48 h, 35° C., tested 0.19 to 50 μM; read-out: C. neoformans MIC80. Here is the method:
Cell types used for C. neoformans studies. All inhibition assays were performed with C. neoformans var. grubii, KN99 (serotype A, MAT). Two clinical strains of C. neoformans var. grubii, serotype A, were provided by Tamara Doering and Andre Spec. […] Cells were diluted to OD650 0.001 in YNB-02 02 (0.67% yeast nitrogen base, 0.2% dextrose, pH 7.0 with 50 mM MOPs)+1% DMSO prior to addition to the plates for the inhibition assays.
C. neoformans growth inhibition assays. Compounds were tested in a limiting dilution assay with a starting optical density (at 650 nm) of 0.001 in YNB-02 plus 1% DMSO. Cells plus compound were incubated in 96-well clear round bottom plates covered with a Breath-easy® membrane without shaking for 48 hours at 35° C. Before measuring cell density, plates were shaken on a microtiter plate shaker at 900 rpm for 3 minutes to resuspend cells and optical density was measured at 650 nm. […] Each assay was done in triplicate and all values are the average of two or more independent assays. The data are presented as the average cell density as a percent of DMSO-only treated cells. MICs are reported as the minimal concentration needed to inhibit 80% of C. neoformans growth relative to vehicle-treated controls.

Another series in a line: in vitro. Conditions: human, CC50 (μM), Table 2 amides; HepDES19 cells, MTT.
The test system of another series is HSV-1. The experiment in a line: Anti-HSV-1 replication assay (Vero cells, plaque titer). In kind it is cell-based, herpes simplex virus 1. As to conditions: Human alphaherpesvirus 1, Vero, Table 2 amides; for log reduction at 1 µM: compound at 1 μM, read-out: HSV-1 suppression 1 μM; for log reduction at 1 µM / log reduction at 5 µM: values separated by / are repeats; for log reduction at 5 µM: compound at 5 μM, read-out: HSV-1 suppression 5 μM.

Values after ≈ are worked out from the molar mass of the structure shown.

Broadly, the IC50 is the concentration at which inhibition is half-maximal. As usually defined, the MIC80 is an inhibitory concentration at the 80% level, which refers to growth in some studies and to a panel of isolates in others. The term CC50 denotes the concentration at which the toxic effect on the cells reaches its halfway point. A lower CC50 goes with harm at low concentration. `Cc1cc(O)c(=O)c(O)cc1C(=O)NCC1CCN(C(=O)OC(C)(C)C)CC1` [compound 805]: the IC50 on human RNaseH1 turned out to be 77 ± 30.8 µM. The MIC80 in series [1] is 9 µM (≈ 3.53 µg/mL). Besides, the midpoint of cytotoxicity in “in vitro”, the CC50 at 24 h, lay at 19.5 ± 10.8 µM.

For the compound `COc1ccc(CNC(=O)c2cc(O)c(=O)c(O)cc2C)cc1` [compound 806], the IC50 on human RNaseH1 stood at 61.4 ± 15.9 µM. Further, the MIC80 in series [1] was found to be 4.6 µM (≈ 1.45 µg/mL). This compound showed a CC50 at 24 h in the series “in vitro” of 15.9 ± 6.9 µM.

As to `Cc1cc(O)c(=O)c(O)cc1C(=O)NCc1ccc(Oc2ccccc2)cc1` [compound 807], on human RNaseH1, the IC50 is 799 ± 403 µM. Further, the log reduction at 0.33 µM in the series with HSV-1 (compound at 0.33 μM, read-out: HSV-1 suppression 0.33 μM) came to 0.0714. In the series with HSV-1, the log reduction at 1 µM is -0.11 and the log reduction at 5 µM was 4.54. In series [1], the MIC80 was 4.5 µM (≈ 1.7 µg/mL). In the series “in vitro”, this compound came in with a CC50 at 24 h of 6 ± 6.5 µM.

For `Cc1cc(O)c(=O)c(O)cc1C(=O)NCC1COC(C)(C)O1` (stereo not drawn) [compound 808], on human RNaseH1, the IC50 worked out at 71.9 ± 12 µM. In addition, the MIC80 in series [1] turned out to be 9 µM (≈ 2.78 µg/mL). The half-maximal cytotoxic concentration (CC50) at 24 h in the series “in vitro” amounted to 14.9 ± 8.6 µM.

As to `Cc1ccc(CNC(=O)c2cc(O)c(=O)c(O)cc2C)c(C)c1` [compound 809], on human RNaseH1, the IC50 stood at 19.6 ± 20 µM. In the series with HSV-1, the log reduction at 1 µM worked out at 0.0278 and the log reduction at 5 µM was 4.69. In addition, the MIC80 in series [1] was found to be 3.3 µM (≈ 1.03 µg/mL). In “in vitro”, this compound gave a cytotoxic concentration (CC50) at 24 h of 5.8 ± 6.5 µM.

As for `Cc1cc(O)c(=O)c(O)cc1C(=O)NCC1CCCCN1C(=O)OC(C)(C)C` (stereo not drawn) [compound 810], the IC50 on human RNaseH1 came out at 41.5 ± 7.2 µM. Moreover, in series [1], the MIC80 came to 4.5 µM (≈ 1.77 µg/mL). This compound gave a half-maximal cytotoxic concentration (CC50) at 24 h in the series “in vitro” of 10.9 ± 11.2 µM.

For `Cc1cc(O)c(=O)c(O)cc1C(=O)Nc1ccccc1Cc1ccccc1` [compound 834], the half-inhibitory concentration (IC50) on human RNaseH1 amounted to 37.2 ± 17.2 µM. Besides, the log reduction at 5 µM in the series with HSV-1 is 1.8. Moreover, the MIC80 in series [1] turned out to be 9 µM (≈ 3.25 µg/mL). Besides, half-maximal cytotoxicity in “in vitro” (CC50 at 24 h) was put at 16.4 ± 11.2 µM.

On to `Cc1cc(O)c(=O)c(O)cc1C(=O)Nc1ccccc1OCc1ccccc1` [compound 835], for which the half-maximal inhibitory concentration (IC50) on human RNaseH1 came to 725 ± 427 µM. For the same compound, the log reduction at 5 µM with HSV-1 was determined as 5.23. Besides, the MIC80 in series [1] came to 4.5 µM (≈ 1.7 µg/mL). In “in vitro”, this compound had a CC50 at 24 h of 10.3 ± 5.2 µM.

Take `Cc1cc(O)c(=O)c(O)cc1C(=O)N1CCN(S(=O)(=O)c2ccsc2)CC1` [compound 917]: the IC50 at human RNaseH1 worked out at 30.7 ± 15.8 µM. For the same compound, the MIC80 in series [1] worked out at 50 µM (≈ 20.5 µg/mL). In the series “in vitro”, this compound gave a 50% cytotoxic concentration (CC50) at 24 h of 8.9 ± 4.1 µM.

Consider `Cc1cc(O)c(=O)c(O)cc1C(=O)N1CCN(c2ccc(C(F)(F)F)cc2)CC1` [compound 919], for which the MIC80 in series [1] was 2.5 µM (≈ 1.02 µg/mL). In the series “in vitro”, this compound registered a CC50 at 24 h of 5.5 ± 1.9 µM.

Turning to `Cc1cc(O)c(=O)c(O)cc1C(=O)N1CCN(C(=O)c2ccc([N+](=O)[O-])c3nonc23)CC1` [compound 920], the IC50 at human RNaseH1 is 40.2 ± 39.7 µM. Further, the MIC80 in series [1] worked out at 50 µM (≈ 22.8 µg/mL). The midpoint of cytotoxicity in the series “in vitro”, the CC50 at 24 h, lay at 19.3 ± 14.6 µM.

Turning to `Cc1cc(O)c(=O)c(O)cc1C(=O)NCC1CCOC1` (stereo not drawn) [compound 1018], the IC50 on human RNaseH1 turned out to be 129 ± 123 µM. Further, in series [1], the MIC80 was 50 µM (≈ 14 µg/mL). The CC50 at 24 h in “in vitro” was determined as 41.2 ± 33.4 µM.

Take `Cc1cc(O)c(=O)c(O)cc1C(=O)NCc1ccc(N2CCCC2)cc1` [compound 1019]: at human RNaseH1, the IC50 was 383 ± 471 µM. Further, the MIC80 in series [1] was 4.5 µM (≈ 1.59 µg/mL). Further, half-maximal cytotoxicity in “in vitro” (CC50 at 24 h) was put at 10.7 ± 6 µM.

Consider `Cc1cc(O)c(=O)c(O)cc1C(=O)N1CCN(C(=O)N(c2ccccc2)c2ccccc2)CC1` [compound 1020], for which the IC50 on human RNaseH1 was 12.9 ± 7.3 µM. Also, the MIC80 in series [1] was found to be 8 µM (≈ 3.68 µg/mL). In “in vitro”, this compound showed a CC50 at 24 h of 7.8 ± 3.7 µM.

Regarding `CCCCNC(=O)c1cc(O)c(=O)c(O)cc1C` [compound 1039], the half-maximal inhibitory concentration (IC50) on human RNaseH1 worked out at 219 ± 87.6 µM. In addition, in series [1], the MIC80 stood at 12 µM (≈ 3.02 µg/mL). Half-maximal cytotoxicity in “in vitro” (CC50 at 24 h) was put at 8.7 ± 2.8 µM.

For the origin of these results see patent US12606529B2, “Sulfur and amide tropolone inhibitors of nucleotidyl transferases and uses therefor” (Saint Louis University, priority 2019, dated 2026).
